Values joined by “and” are separate entries in the source; they are usually repeats but may differ in a detail not shown here. Equal values may be shown once.
Tested on: NCI-H1876 tumor spheroid viability
Assay: Anticancer human tumor NCI-H1876 cell line growth inhibition;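 note: spheroids exposed to compounds for seven days before the viability read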;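 for viability, T/C: percent of DMSO vehicle control viability so 100% = vehicle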
Conditions: spheroids with HUVEC and MSC; for viability, T/C: stronger effect = lower value
Outline: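 Complex spheroids of malignant cells with endothelial cells and mesenchymal stem cells; agents alone or combined, from near clinical Cmax (or 10 microM if unknown) down in half-log steps, 0.25% DMSO final.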

[1] = curve of first compound, second compound 0.003 µM
[2] = curve of first compound, second compound 0.00949 µM
[3] = curve of first compound, second compound 0.03 µM
[4] = curve of first compound, second compound 0.0949 µM
[5] = curve of first compound, second compound 0.3 µM

Cc1cc(C)c(CNC(=O)c2cc(-c3ccc(CN4CCOCC4)cc3)cc3c2cnn3C2CCCC2)c(=O)[nH]1 + CC[C@@]1(O)C(=O)OCc2c1cc1n(c2=O)Cc2cc3c(CN(C)C)c(O)ccc3nc2-1
IC50 [1]: 509 nM
IC50 [2]: < 31.6 nM
IC50 [3]: < 31.6 nM
IC50 [4]: < 31.6 nM
IC50 [5]: < 31.6 nM
viability, T/C (second compound 0.003 µM, first compound 0.0316 µM): 78.6%
viability, T/C (second compound 0.003 µM, first compound 0.1 µM): 70%
viability, T/C (second compound 0.003 µM, first compound 0.316 µM): 56.6%
viability, T/C (second compound 0.003 µM, first compound 1 µM): 39%
viability, T/C (second compound 0.003 µM, first compound 3.16 µM): 27.7%
viability, T/C (second compound 0.003 µM, first compound 10 µM): 10.5%
viability, T/C (second compound 0.00949 µM, first compound 0.0316 µM): 40.9%
viability, T/C (second compound 0.00949 µM, first compound 0.1 µM): 39.6%
viability, T/C (second compound 0.00949 µM, first compound 0.316 µM): 35.1%
viability, T/C (second compound 0.00949 µM, first compound 1 µM): 26.2%
viability, T/C (second compound 0.00949 µM, first compound 3.16 µM): 22%
viability, T/C (second compound 0.00949 µM, first compound 10 µM): 10.5%
viability, T/C (second compound 0.03 µM, first compound 0.0316 µM): 15.6%
viability, T/C (second compound 0.03 µM, first compound 0.1 µM): 15.2%
viability, T/C (second compound 0.03 µM, first compound 0.316 µM): 17.6%
viability, T/C (second compound 0.03 µM, first compound 1 µM): 17.8%
viability, T/C (second compound 0.03 µM, first compound 3.16 µM): 16.5%
viability, T/C (second compound 0.03 µM, first compound 10 µM): 9.6%
viability, T/C (second compound 0.0949 µM, first compound 0.0316 µM): 8.57%
viability, T/C (second compound 0.0949 µM, first compound 0.1 µM): 9.17%
viability, T/C (second compound 0.0949 µM, first compound 0.316 µM): 10.2%
viability, T/C (second compound 0.0949 µM, first compound 1 µM): 12.2%
viability, T/C (second compound 0.0949 µM, first compound 3.16 µM): 12%
viability, T/C (second compound 0.0949 µM, first compound 10 µM): 11.9%
viability, T/C (second compound 0.3 µM, first compound 0.0316 µM): 3.79%
viability, T/C (second compound 0.3 µM, first compound 0.1 µM): 4.57%
viability, T/C (second compound 0.3 µM, first compound 0.316 µM): 4.59%
viability, T/C (second compound 0.3 µM, first compound 1 µM): 6.24%
viability, T/C (second compound 0.3 µM, first compound 3.16 µM): 7.93%
viability, T/C (second compound 0.3 µM, first compound 10 µM): 7.45%

COc1cc(C)[nH]c(=O)c1CN1CCc2c(Cl)cc(C(OC)C3COC3)c(Cl)c2C1=O (configuration not stated)
viability, T/C (compound 0.0316 µM): 106% and 117% and 105%
viability, T/C (compound 0.1 µM): 109% and 112% and 103%
viability, T/C (compound 0.316 µM): 101% and 110% and 98.1%
viability, T/C (compound 1 µM): 102% and 103% and 92.3%
viability, T/C (compound 3.16 µM): 98.3% and 96.9% and 95.2%
viability, T/C (compound 10 µM): 94.2% and 77.4% and 86.5%
IC50 (curve of compound): > 10000 nM

Cn1ncnc1[C@H]1c2n[nH]c(=O)c3cc(F)cc(c23)N[C@@H]1c1ccc(F)cc1 + CC[C@@]1(O)C(=O)OCc2c1cc1n(c2=O)Cc2cc3c(CN(C)C)c(O)ccc3nc2-1
IC50 [1]: 57.9 nM
IC50 [2]: < 9.49 nM
IC50 [3]: < 9.49 nM
IC50 [4]: < 9.49 nM
IC50 [5]: < 9.49 nM
viability, T/C (second compound 0.003 µM, first compound 0.00949 µM): 71%
viability, T/C (second compound 0.003 µM, first compound 0.03 µM): 60.4%
viability, T/C (second compound 0.003 µM, first compound 0.0949 µM): 36%
viability, T/C (second compound 0.003 µM, first compound 0.3 µM): 39.9%
viability, T/C (second compound 0.003 µM, first compound 0.949 µM): 6.31%
viability, T/C (second compound 0.003 µM, first compound 3 µM): 0.18%
viability, T/C (second compound 0.00949 µM, first compound 0.00949 µM): 44.6%
viability, T/C (second compound 0.00949 µM, first compound 0.03 µM): 37.4%
viability, T/C (second compound 0.00949 µM, first compound 0.0949 µM): 29%
viability, T/C (second compound 0.00949 µM, first compound 0.3 µM): 19.4%
viability, T/C (second compound 0.00949 µM, first compound 0.949 µM): 6.41%
viability, T/C (second compound 0.00949 µM, first compound 3 µM): 0.15%
viability, T/C (second compound 0.03 µM, first compound 0.00949 µM): 14.9%
viability, T/C (second compound 0.03 µM, first compound 0.03 µM): 28.7%
viability, T/C (second compound 0.03 µM, first compound 0.0949 µM): 18.9%
viability, T/C (second compound 0.03 µM, first compound 0.3 µM): 18%
viability, T/C (second compound 0.03 µM, first compound 0.949 µM): 5.53%
viability, T/C (second compound 0.03 µM, first compound 3 µM): 0.13%
viability, T/C (second compound 0.0949 µM, first compound 0.00949 µM): 9.15%
viability, T/C (second compound 0.0949 µM, first compound 0.03 µM): 28.8%
viability, T/C (second compound 0.0949 µM, first compound 0.0949 µM): 10.8%
viability, T/C (second compound 0.0949 µM, first compound 0.3 µM): 10.3%
viability, T/C (second compound 0.0949 µM, first compound 0.949 µM): 3.73%
viability, T/C (second compound 0.0949 µM, first compound 3 µM): 0.14%
viability, T/C (second compound 0.3 µM, first compound 0.00949 µM): 3.72%
viability, T/C (second compound 0.3 µM, first compound 0.03 µM): 3.65%
viability, T/C (second compound 0.3 µM, first compound 0.0949 µM): 3.75%
viability, T/C (second compound 0.3 µM, first compound 0.3 µM): 3.83%
viability, T/C (second compound 0.3 µM, first compound 0.949 µM): 1.56%
viability, T/C (second compound 0.3 µM, first compound 3 µM): 13.9%

Reference: PubChem BioAssay AID1845207 (Molecular Pharmacology Branch, DTP, NCI, 2023)
